Measured values: US5726156A, “Cytokine regulatory agents and methods of use in pathologies and conditions associated with altered cytokine levels” (Trega Biosciences, Inc., priority 1995, dated 1998)
Several values for one entry are separate records, joined by “and”; a condition that tells them apart may be missing. Equal values may be shown once. Square brackets hold non-standard residues; d marks the D form. Peptide text beside a SMILES is read from it.

Assays:
[1] = tested on: morphine-induced respiratory depression; assay: Morphine-induced respiratory depression; assay type: in vivo, rabbits; details: 10 + 20 + 20 μg/kg/rabbit iv; end of experiment (80 min)
Experimental: Male Shelton rabbits (3-4 kg) were restrained and fitted around the thorax, just behind the front limbs, with a respiration transducer (Model F-RCT; Grass Instruments; Quincy Ma). The transducer was connected to a grass polygraph via an EKG cable. An intravenous line was established for drug administration by cannulating the marginal ear vein using a 25 G butterfly needle.
Rabbit breathing was allowed to stabilize, then morphine sulfate (2 mg/kg in 0.5 ml saline) was administered by intravenous (iv) injection and respiratory rate and depth were monitored for 10 min. A second dose of morphine was administered, then, after 10 min, EX-2 or EX-3 (10 μg/kg in 0.5 ml saline) was administered, iv, and rabbits were monitored for 20 min. Two additional doses of EX-2 or EX-3 (20 μg/kg in 1.0 ml saline) were administered at 20 min intervals, i.e., 40 min and 60 min after the first morphine injection.
Results were calculated as the percent change from baseline values and are expressed as the difference of the mean value of the treated group minus the mean value of the control group at the end of the experiment (80 min).

TNF-α [2] = assay: Reduction of LPS-induced TNF levels in mice (IP dosing); assay type: in vivo; details: 150 μg/mouse IP, one min before LPS 5 mg/kg IP
Experimental: Balb/c female mice weighing approximately 20 g were placed into two groups, a control group and a treated group. Five mg/kg of LPS in 0.9% saline was administered by intraperitoneal (IP) injection into the control mice. Mice in the treated group were first injected IP with 30 μg EX-2 or 150 μg EX-3 in saline, then, one min after EX-2 or EX-3 was administered, the mice received LPS as described for the control group.
Blood samples were collected from the orbital sinus of treated and control mice at various times up to four hr after LPS was administered. The plasma was separated by centrifugation at 3000×g for 5 min, then diluted with four volumes of 1× phosphate buffer saline (pH 7.4) containing 1% bovine serum albumin. A 100 μl sample of serum was assayed by ELISA for TNF-α (Genzyme; Cambridge Mass.).
The mean (+/- SEM) TNF-α level in six mice from each group was determined and the percent reduction in TNF levels was calculated.

TNF-α [3] = assay: LPS-induced TNF-α levels, oral (gavage) dosing; assay type: in vivo, mice; details: one min before 0.1 mg LPS IP
Experimental: The ability of orally administered cytokine regulatory agents to reduce LPS-induced TNF-α levels also was examined. Balb/c female mice (20 g) were administered 150 μg or 300 μg EX-2, EX-3, EX-5 or EX-6 in 100 μl saline by gavage. Control mice received 100 μl saline, alone. One min later, 0.1 mg LPS was administered by IP injection. Samples were collected and TNF-α levels were determined as described in Example III, above.
The mean TNF-α levels in the mice from each group (n=9-20) was determined and the percent reduction in TNF-α levels was calculated.

LPS-induced lethality [4] = assay: LPS-induced lethality (IP dosing); assay type: in vivo, mice; details: 11 × 300 μg/mouse IP (3.3 mg), every 4 hr; 0.6 mg LPS
Experimental: These experiments were performed based on information reported by Rivier etal., Endocrinology 125:2800-2805 (1989), which is incorporated herein by reference. Adult female Balb/c mice were provided food and water ad libitum. Mice were injected IP every four hr for 40 hr with 30 to 300 μg EX-2, EX-3 or EX-4 in 0.2 ml saline (treated group) or with 0.2 ml saline, alone (control group) (10 mice per group). Immediately following the first injection, 0.6 mg LPS endotoxin in 0.2 ml saline was administered to each mouse. Following LPS injection, EX-2 or saline was administered to the treated mice or the control mice, respectively, every 4 hr for 36 hr.

[5] = tested on: arachidonic acid-induced ear swelling; assay: Arachidonic acid-induced ear swelling; assay type: in vivo, mice; details: 100 μg/mouse IP 30 min prior to AA; 60 min after AA
Experimental: Experiments were performed using female Balb/c mice weighing 18-23 grams. Saline or 100 μg EX-2 or EX-3 was administered IP, 30 min prior to topical application of arachidonic acid (AA). A 10 μl pipet was used to apply 10 μl AA solution (100 mg/ml ethanol; Calbiochem-Novabiochem; San Diego Calif.) to the inner and outer surfaces of the right ear of each mouse. Ten μl ethanol, alone, was applied to the inner and outer surface of the left ear of each mouse. Ear thickness was measured with a hand-held spring loaded caliper immediately before and 60 min after AA application. Increase in ear thickness was calculated by subtracting the change observed in the control ear from the change observed in AA-treated ear. The value for each group (saline and control) is the average of the swelling observed in the individual mice in each group. The percent reduction of swelling is based on the swelling observed in the saline control group.

LPS-induced fever = assay: LPS-induced temperature increase (fever); assay type: in vivo, rats; details: 150 μg/kg IP; 6 hr following LPS injection
Experimental: Male Wistar rats (45-75 days old) were placed in a temperature controlled room held at 26° C., which is thermoneutral for the normal body temperature of rats, and were maintained in the room with free access to food and water for 24 hr prior to testing. On the morning of the study, rats were marked for identification and weighed. The temperature of each rat was determined by placing the animal in a regulatory cage designed to minimize stress and inserting a temperature probe (YSI probe #402) 3-5 cm into the animal's rectum. The temperature was recorded 15 sec after the reading stabilized. Measurements were repeated 1 hr later to establish a baseline temperature for each rat.
After the baseline temperatures were established, rats were injected IP with saline, IL-1β or LPS endotoxin. Rats then were injected IP with either saline (control) or various concentrations of EX-2, EX-3, or EX-4 (treated). The temperature of the rats was measured every hr for 6 hr and the inhibition by EX-2, EX-3, or EX-4 of the rise in temperature due to IL-1β or LPS was determined.
In addition, treatment with 50 or 150 μg/kg EX-2 inhibited LPS-induced fever by 45% or 52%, respectively, when measured 6 hr following LPS injection. Furthermore, treatment with 150 μg/kg EX-3 or EX-4 inhibited LPS-induced fever by 57% and 52%, respectively (Table II).

[6] = tested on: Carageenan-induced paw swelling; assay: Carageenan-induced paw swelling; assay type: in vivo, mice; details: 1 μg/mouse; 2 hr time point
Experimental: Carageenan-induced paw swelling was induced using a modification of the methods of Hiltz and Lipton, Peptides 11:979-982 (1990); Vinegar et al., Fed. Proc. 46:118-126 (1987); and Vinegar et al., J. Pharmacol. Expt. Therap. 166:96-103 (1969), each of which is incorporated herein by reference. Briefly, adult female Balb/c mice were anesthetized by IP injection of 7 mg/kg ketoamine and 0.6 mg/kg rompun. Foot pad thickness was measured using a spring loaded micrometer (Swiss Precision Instruments). Foot pad thickness was expressed in units of 1/100 inch. After baseline measurements were obtained, mice were injected into a hind foot pad with either 0.2 ml physiologic saline (control) or varying doses of EX-2 or EX-3 in 0.2 ml saline (treated). The first injection was followed immediately by injection of 0.02 ml of 0.15% K-carageenan (Sigma Chemical Co.; St. Louis, Mo.).
Hind foot pad thickness was measured hourly for six hr, the change in thickness was determined and the percent reduction in swelling due to treatment with EX-2 was calculated.

LPS-induced lethality [7] = assay: LPS-induced lethality, oral (gavage) dosing; assay type: in vivo; details: control mice 0%
Experimental: The LPS-induced lethality studies were performed based on information reported by Rivier et al., supra, 1989. Adult female Balb/c mice were provided food and water ad libitum. Mice were administered 150 μg or 300 μg EX-2, EX-3, EX-5 or EX-6 in 100 μl saline by gavage every 4 hr for 40 hr (total doses of 1.65 mg and 3.3 mg, respectively). Control mice received 100 μl saline, alone. Immediately following the first dose of cytokine regulatory agent or saline, 0.6 mg LPS in 0.2 ml saline was administered by IP injection.

SMILES	Reduction in Morphine-induced Respiratory Depression [1] [%]	Reduction in TNF levels (TNF-α [2]) [%]	percent reduction in TNF-α levels, oral dosing (TNF-α [3]; 150 μg by gavage) [%]	percent reduction in TNF-α levels, oral dosing (TNF-α [3]; 300 μg by gavage) [%]	Inhibition of LPS-induced Lethality (increase in survival vs control) (LPS-induced lethality [4]) [%]	Reduction in arachidonic acid-induced Ear Swelling [5] [%]	Reduction in LPS-induced Fever (LPS-induced fever) [%]	Reduction in Carageenan-induced Paw Swelling [6] [%]	survival after LPS, oral dosing (LPS-induced lethality [7]; 3.3 mg total (300 μg by gavage every 4 hr for 40 hr))	survival after LPS, oral dosing (LPS-induced lethality [7]; 1.65 mg total (150 μg by gavage every 4 hr for 40 hr)) [%]
CC(=O)N[C@H](C(=O)N[C@@H](CCC(N)=O)C(=O)N[C@@H](Cc1c[nH]cn1)C(=O)N[C@H](Cc1ccccc1)C(=O)N[C@@H](CCCNC(=N)N)C(=O)N[C@H](Cc1c[nH]c2ccccc12)C(=O)NCC(N)=O)C1CCCCC1 [EX-3, Ac-(cyclohexyl)Gly-Gln-His-(D) Phe-Arg- (D) Trp-Gly-NH2]	65	56	49	40	86	62	57	49		
CC(=O)N[C@H](Cc1ccccc1)C(=O)N[C@@H](CCCNC(=N)N)C(=O)N[C@H](Cc1c[nH]c2ccccc12)C(N)=O [EX-4, Ac- (D) Phe-Arg-(D) Trp-NH2]		53			75		52			
CC(=O)N[C@@H](Cc1c[nH]cn1)C(=O)N[C@H](Cc1ccccc1)C(=O)N[C@@H](CCCNC(=N)N)C(=O)N[C@H](Cc1c[nH]c2ccccc12)C(=O)NCC(N)=O [EX-5, Ac-His- (D) Phe-Arg- (D) Trp-Gly-NH2] (Ac-H[dF]R[dW]G-NH2)				44					63% and 44%	
CC(=O)N[C@@H](Cc1c[nH]cn1)C(=O)N[C@H](Cc1ccccc1)C(=O)N[C@@H](CCCNC(=N)N)C(=O)N[C@H](Cc1c[nH]c2ccccc12)C(N)=O [EX-6, Ac-His-(D)Phe-Arg-(D)TrP-NH2]										68
